Entries after “also recorded” stand apart in the source; their conditions may differ. Read-outs that look alike come from different tables or passages of the source.
Assays:
fibroblast monolayers [1] = experiment: FC efflux from fibroblast monolayers (3H-FC label); assay type: cell-based, human
Protocol: Fibroblast monolayers were equilibrated with ^3 H-FC-labeled native plasma or with isolated ^3 H-labeled LDL, as specified for each experiment. Following incubation, the dishes were washed with albumin-complete PBS and then (×4) with complete PBS. They were then incubated for 3 min with unlabeled plasma or lipoprotein fractions and the rate of appearance of radioactivity in the medium determined. Samples of medium ([…]) were immediately chilled in ice water and centrifuged (10 min, 2000×g) at 0-2° C. ^3 H-cholesterol radioactivity in the supernatant was either assayed directly, or fractionated by agarose gel electrophoresis. FC efflux was linear as previously reported (Kawano et al., Biochemistry, 32: 5025-5028 (1993)).
For electrophoresis, […] portions of labeled medium were added to strips of 0.75% w/v agarose in 0.025 M barbital buffer (pH 8.6) and separated as previously described (Fielding et al., Biochemistry, 30: 8551-8557 (1991)). 2.5 mm gel fractions were then collected, and radioactivity measured. The location of major lipoprotein classes was determined from strips run simultaneously with whole native plasma equilibrated (60 min, 37° C.) With ^3 HFC.
Rates of FC influx and efflux between medium and fibroblast monolayers preincubated for 24 h with 7-80% native human plasma in DMEM were determined. Cells equilibrated in 80% compared to 7% v/v plasma contained 35-40% more total cholesterol but only 10-15% more FC. In 50% v/v plasma, cholesteryl ester levels were lower than in 80% plasma but FC levels were almost the same. Rates of transfer of FC between the cells and their extracellular medium were determined for each plasma dilution. […] was measured as the rate of transfer of ^3 H-FC radioactivity from labeled native plasma to unlabeled cells. […] was determined as the rate of transfer of radioactivity from uniformly labeled cells to unlabeled native plasma medium.

fibroblast monolayers [2] = experiment: Cellular cholesterol mass (FC, EC, total); assay type: cell-based, human; conditions: +NEM 2 mM; increase over 120 min, 37° C.
Protocol: The FC and EC mass of cell monolayers was determined before and after incubation with lipoprotein as described above. Portions of the chloroform phase were analyzed for total and free cholesterol. Except where indicated each data point represents the mean of triplicate dishes. The coefficient of variation was <5% of means in these experiments.
120 min. at 37° C. Initial cell FC was […].

[3] = test system: LDL FC uptake by fibroblast monolayers; experiment: Transfer of LDL-derived 3H-FC into fibroblast monolayers with metabolic inhibitors (Example 2); assay type: cell-based, human; conditions: brefeldin A, vinblastine, taxol, nocodazole; NEM 2 mM
[4] = test system: intracellular FC transport to the cell surface in fibroblast monolayers; experiment: Transfer of intracellular 3H-FC to the cell surface (cholesterol oxidase); assay type: cell-based, human; conditions: in words
Protocol: This assay utilized the finding (see Example 1) that only FC in the caveolar fraction of the plasma membrane fraction was modified by cholesterol oxidase in unfixed fibroblast monolayers.
The rate at which intracellular LDL-derived ^3 H-FC became accessible at the cell surface was measured as follows. Cell monolayers were labeled with ^3 H-FC LDL under the conditions shown for each experiment. Unbound and adsorbed LDL were removed as described above. In some experiments metabolic inhibitors of different transport steps were then added for 30 min at 15° C. […] Cholesterol oxidase (Boehringer-Manheim, Indianapolis, Ind., USA) was added in PBS to a final concentration of 1 U ml^-1. Incubation was for 4 h at 0° C. The cells were washed with ice-cold PBS, and extracted with 0.1 N NAOH. Cell total lipid was extracted with chloroform-methanol (1:1 v/v). […] .
Fibroblast monolayers were prelabeled with FC-labeled LDL for 2 min at 31° C. Medium and surface-bound labeled LDL were removed as described above. The cells were incubated with inhibitors of intracellular transport for 30 min at 15° C. Movement of FC label to the cell surface remained negligible (FIG. 11). The cells were brought to 31° C. for 15 min, and then cooled on wet ice. ^3 H-FC transfer to the cell surface (in the presence and absence of inhibitor) was assayed with cholesterol oxidase as described above.

[5] = test system: intracellular FC vesicle fractions of fibroblast monolayers; experiment: D2O-Ficoll density gradient fractionation of LDL-derived 3H-FC vesicles; assay type: cell-based, human; conditions: NEM 2 mM
Protocol: Early endosomal vesicles were labeled with LDL-derived ^3 H-FC by a modification of procedures described by Woodman & Warren (1991) J. Cell Biol., 112:1133-1141. Fibroblast monolayers in 10 cm dishes were washed in ice-cold PBS. The cells were labeled by incubation (2 h, 4° C.) with ^3 H-FC LDL. The monolayers were washed in PBS and brought to 31° C. for 0-15 min. The cells were then quickly chilled on ice, and cold unlabeled LDL was added (15 min, 4° C.) to displace any remaining surface-bound labeled LDL and all subsequent steps were carried out at 0-4° C.
Cells from three 10 cm dishes were used for each gradient. Monolayers were washed with 140 mM sucrose, 0.5 mM MgCl2, 1 mM EGTA, 20 mM 2-[N-morpholino]ethanesulfonic acid (MES), 70 mM potassium acetate, pH 6.6 (`vesicle buffer`) (Woodman & Warren, supra.). […] Fractions (~0.6 ml) were collected dropwise and the distribution of FC label determined. […] Solution density was determined gravimetrically using […] portions of each fraction. […]
The identity of intracellular transport intermediates and the extent of any cross-contamination between fractions was established using specific antibodies to protein markers, labeled ligands of receptor proteins, and assays of enzyme proteins. […] The distribution of antigen between different gradient fractions was determined with a computerized scanner (ImageQuant, Molecular Devices, Sunnyvale, Calif., USA).

vesicular transport = conditions: assays of vesicular transport in vitro; cited from earlier work
[6] = test system: LDL FC uptake by fibroblast monolayers; experiment: Effects of metabolic inhibitors on uptake of 3H-cholesterol from LDL (Example 1)
[7] = test system: LDL FC uptake by fibroblast monolayers; conditions: in words
caveolin mRNA [8] = conditions: literature; cited from earlier work
[9] = test system: human hepatoblastoma (HepG2) cells; conditions: cited from earlier work
fibroblasts = conditions: fibroblast monolayers; cited from earlier work
caveolin promoter = experiment: Luciferase expression driven by caveolin promoter (pGL3); assay type: cell-based; conditions: Homo sapiens, Skin fibroblast, 3 h; 50 μM cholesterol α-epoxide, 80% v/v plasma; read-out: reduction of luciferase expression
Description: The pGL3 luciferase vector (Promega, Madison, Wis.) was used for cloning purposes. A 705 bp Bgl II restriction fragment corresponding to -781 to -76 bp (relative to the translational start site) was isolated from the 4 kb genomic fragment described above. This was subcloned into the Bgl II site of the vector. The orientation of the insert was identified by restriction mapping and DNA sequencing.
Mutations of sequences within the promoter were created by deletional mutagenesis on single strand DNA, using the Sculptor mutagenesis kit (Amersham). On the basis of the caveolin gene promoter sequence, three oligonucleotides were designed: i) from -664 to -620 with bases -646 to -637 deleted; ii) from -412 to -363 with bases -395 to -386 deleted; and iii) from -302 to -262 with bases -287 to -278 deleted. These were used to generate the promoter mutants designated Δ1, Δ2 and Δ3 respectively.
Normal skin fibroblasts were plated at a density of 5-8×10^5 cells per 6 cm dish. These cells were transfected with 10 μg per dish of the wild type (705 bp) caveolin promoter fragment subcloned in the forward and reverse orientation in the luciferase expression vector pGL3. […] After 10-20 sec, luciferase activity was determined using an analytical luminometer (Monolight 2010, Analytical Luminescence Laboratories, San Diego, Calif.).

caveolin mRNA [10] = experiment: Caveolin mRNA levels (Northern blot); conditions: 80% v/v plasma + 50 μM cholesterol α-epoxide, 8 h with actinomycin, 37° C.

## CCN1C(=O)C=CC1=O [N-ethylmaleimide]
Fibroblast monolayers [1]; +NEM 2 mM, proportion retained after 80% v/v plasma-PBS, 10 min, 37° C.
  Lipoprotein-resistant label: 0.24 ± 0.03
Fibroblast monolayers [1]; in words, listed as NEM
  initial rate of efflux of FC from prelabeled cells to plasma: increased rate of efflux; also recorded: increased several-fold
Fibroblast monolayers [2]
  D total cholesterol: 0.4 ± 0.2 Fg dish^-1
[3]
  effect on uptake of 3H-FC from LDL: blocks selective uptake of FC from LDL
[4]
  effect on transport of intracellular 3H-FC to the cell surface: inhibited the return of FC to the cell surface, but less effectively than did nocodazole
[5]
  FC label with clathrin at d 1.12 g ml^-1: no peak of FC label was present with clathrin at d 1.12 g ml^-1
Vesicular transport
  concentration for maximal inhibition: 1 mM
[6]; FIG. 8
  inhibition of the uptake of free cholesterol from LDLs: > 80%
[6]; NEM: first 10-15 min, KNO3: 50 mM, data not shown
  time course of inhibition of LDL FC uptake: no effect
[6]; cells prelabeled to equilibrium (24 h) with 3H-FC
  time to complete inhibition: ≤ 30 min
[6]; preincubated 30 min with NEM, incubation beyond 10-15 min, FIG. 8
  inhibition of the uptake of 3H-FC from LDL: > 80%

## CC(=O)[C@H]1CC[C@H]2[C@@H]3CCC4=CC(=O)CC[C@]4(C)[C@H]3CC[C@]12C [Progesterone]
[7]
  effect on LDL FC uptake: no effect
Caveolin mRNA [8]
  effect on caveolin mRNA levels: reduced equilibrium caveolin mRNA levels
[9]
  effect on transfer of FC from plasma membrane to cell interior: promoted the transfer of FC from the plasma membrane to the interior of the cell
fibroblasts
  transport of FC between the TGN and cell surface: inhibited FC transport between the TGN and cell surface
[6]; in words
  effect on LDL FC uptake: without effect

## CC(C)CCC[C@@H](C)[C@H]1CC[C@H]2[C@@H]3CC4OC45C[C@@H](O)CC[C@]5(C)[C@H]3CC[C@]12C (stereo partly drawn) [cholesterol α-epoxide]
Caveolin promoter
  inhibition at 50 µM: 60%
Caveolin mRNA [10]
  caveolin mRNA level relative to total RNA: 0.47
